The source of these data is patent publication US9771353B2, “Kinase inhibitors based upon N-alkyl pyrazoles” (RESPIVERT LIMITED, priority 2013, dated 2017).

A word on the IC50: it is the concentration needed to halve the response being measured.

In one assay the target is GSK3α (Homo sapiens (Human), UniProt P49840). As to the kind of experiment: GSK 3α enzyme inhibition (FRET, Z-LYTE), Method 2. It counts as biochemical. The protocol:
(§1) The enzyme inhibitory activities of compounds disclosed herein are determined by FRET using synthetic peptides labelled with both donor and acceptor fluorophores (Z-LYTE, Invitrogen Ltd., Paisley, UK).
The inhibitory activities of compounds of the invention against the GSK 3α enzyme isoform (Invitrogen), are evaluated by determining the level of activation/phosphorylation of the target peptide. The GSK3-α protein (500 ng/mL, 2.5 μL) is mixed with the test compound (2.5 μL at either 4 μg/mL, 0.4 μg/mL, 0.04 μg/mL, or 0.004 μg/mL) for 2 hr at RT. The FRET peptide (8 μM, 2.5 μL), which is a phosphorylation target for GSK3α, and ATP (40 μM, 2.5 μL) are then added to the enzyme/compound mixture and the resulting mixture incubated for 1 hr. Development reagent (protease, 5 μL) is added for 1 hr prior to detection in a fluorescence microplate reader (Varioskan® Flash, ThermoFisher Scientific).
(§2) In all cases, the site-specific protease cleaves non-phosphorylated peptide only and eliminates the FRET signal. Phosphorylation levels of each reaction are calculated using the ratio of coumarin emission (donor) over fluorescein emission (acceptor), for which high ratios indicate high phosphorylation and low ratios indicate low phosphorylation levels.
This method follows the same steps as Method 1 above, but utilises a shorter period of mixing of the test compound (105 minutes instead of 2 hours) with the GSK3-α protein.

Assay [1] deals with PBMCs. As to the kind of experiment: LPS-induced TNFα/IL-8 release in PBMC cells, assay (b). As to conditions: Homo sapiens, LPS-stimulated PBMCs, read-out: IC50 Values for Inhibition of Cytokine Release, PBMCs IL-8. In kind it is cell-based. The procedure:
Peripheral blood mononuclear cells (PBMCs) from healthy subjects are separated from whole blood using a density gradient (Lymphoprep, Axis-Shield Healthcare). The PBMCs are seeded in 96 well plates and treated with compounds at the desired concentration for 2 hours before addition of 1 ng/mL LPS (Escherichia Coli 0111:B4 from Sigma Aldrich) for 24 hours under normal tissue culture conditions (37° C., 5% CO2). The supernatant is harvested for determination of IL-8 and TNFα concentrations by sandwich ELISA (Duo-set, R&D systems) and read on the fluorescence microplate reader (Varioskan® Flash, ThermoFisher Scientific).

A further assay addresses p38 MAPKα (Homo sapiens (Human), UniProt Q16539). Nature of the assay: p38 MAPKα enzyme inhibition (FRET, Z-LYTE), Method 2. In kind it is biochemical.
Assay [2] relates to PBMCs. Nature of the assay: IL-2 and IFN gamma release in CD3/CD28 stimulated PBMC cells, assay (c). It counts as cell-based. As to conditions: Homo sapiens, IFNγ, read-out: IC50 Values for Inhibition of Cytokine Release, PBMCs IFNγ. The protocol:
PBMCs from healthy subjects are separated from whole blood using a density gradient (Lymphoprep, Axis-Shield Healthcare). Cells are added to a 96 well plate pre-coated with a mixture of CD3/CD28 monoclonal antibodies (0.3 μg/mL eBioscience and 3 μg/mL BD Pharmingen respectively). Compound at the desired concentration is then added to the wells and the plate left for 3 days under normal tissue culture conditions. Supernatants are harvested and IL-2 and IFN gamma release determined by Sandwich ELISA (Duo-set, R&D System). The IC50 is determined from the dose response curve.

The subject of the next assay is d-U937 cells. As to the kind of experiment: Accumulation of β catenin in d-U937 cells, assay (m). In kind it is cell-based, human. The protocol: U937 cells, a human monocytic cell line, are differentiated into macrophage-type cells by incubation with PMA; (100 ng/mL) for between 48 to 72 hr. The cells are then incubated with either final concentrations of test compound or vehicle for 18 hr. The induction of β-catenin by the test compounds is stopped by replacing the media with 4% formaldehyde solution. Endogenous peroxide activity is neutralised by incubating with quenching buffer (100 μL, 0.1% sodium azide, 1% H2O2 in PBS with 0.05% Tween-20) for 20 min. The cells are washed with washing buffer (200 μL; PBS containing 0.05% Tween-20) and incubated with blocking solution (200 μL; 5% milk in PBS) for 1 hr, re-washed with washing buffer (200 μL) and then incubated overnight with anti-β-catenin antibody solution (50 μL) in 1% BSA/PBS (BD, Oxford, UK).
After washing with washing buffer (3×200 μL; PBS containing 0.05% Tween-20), cells are incubated with an HRP-conjugated secondary antibody solution (100 μL) in 1% BSA/PBS (Dako, Cambridge, UK) and the resultant signal is determined colourimetrically (OD: 450 nm with a reference wavelength of 655 nm) using TMB substrate (50 μL; R&D Systems, Abingdon, UK). This reaction is stopped by addition of 1N H2SO4 solution (50 μL). Cells are then washed with washing buffer and 2% crystal violet solution (50 μL) is applied for 30 min. After washing with washing buffer (3×200 μL), 1% SDS (100 μL) is added to each well and the plates are shaken lightly for 1 hr prior to measuring the absorbance at 595 nm (Varioskan® Flash, Thermo-Fisher Scientific).
The measured OD450-655 readings are corrected for cell number by dividing the OD450-655 by the OD595 readings. The percentage induction for each well is calculated relative to vehicle, and the ratio of induction normalised in comparison with the induction produced by a standard control comprising of N-(4-(4-(3-(3-tert-butyl-1-p-tolyl-1H-pyrazol-5-yl)ureido)naphthalen-1-yloxy)pyridin-2-yl)-2-methoxyacetamide (1 μg/mL) which is defined as 100%.

A further assay deals with c-Src (Homo sapiens (Human), UniProt P12931). Nature of the assay: c-Src enzyme inhibition (FRET, Z-LYTE). It counts as biochemical. The procedure:
as §1
(§3) The relevant enzyme (3000 ng/mL or 2000 ng/mL respectively, 2.5 μL) is incubated with the test compound (either 4 μg/mL, 0.4 μg/mL, 0.04 μg/mL, or 0.004 μg/mL, 2.5 μL each) for 2 hr at RT. The FRET peptides (8 μM, 2.5 μL), and appropriate ATP solutions (2.5 μL, 800 μM for c-Src, and 60 μM ATP for Syk) are then added to the enzymes/compound mixtures and incubated for 1 hr. Development reagent (protease, 5 μL) is added for 1 hr prior to detection in a fluorescence microplate reader (Varioskan® Flash, ThermoFisher Scientific).
as §2

A further assay addresses Syk (Homo sapiens (Human), UniProt P43405). Nature of the assay: Syk enzyme inhibition (FRET, Z-LYTE). In kind it is biochemical. The procedure: as §1
as §3, with “The inhibitory activities of compounds of the invention against c-Src and Syk enzymes (Invitrogen), are evaluated in a similar fashion to that described hereinabove. The relevant” for “The relevant”
as §2

Where [3] appears, read: 1 μg/mL test compound, normalised to reference N-(4-(4-(3-(3-tert-butyl-1-p-tolyl-1H-pyrazol-5-yl)ureido)naphthalen-1-yloxy)pyridin-2-yl)-2-methoxyacetamide.
The mark [4] stands for this setting: 5 μg/mL test compound, normalised to the same reference compound.
The mark [5] stands for this setting: 10 μg/mL test compound, normalised to the same reference compound.

Sequence of p38 MAPKα (Q16539 whole entry): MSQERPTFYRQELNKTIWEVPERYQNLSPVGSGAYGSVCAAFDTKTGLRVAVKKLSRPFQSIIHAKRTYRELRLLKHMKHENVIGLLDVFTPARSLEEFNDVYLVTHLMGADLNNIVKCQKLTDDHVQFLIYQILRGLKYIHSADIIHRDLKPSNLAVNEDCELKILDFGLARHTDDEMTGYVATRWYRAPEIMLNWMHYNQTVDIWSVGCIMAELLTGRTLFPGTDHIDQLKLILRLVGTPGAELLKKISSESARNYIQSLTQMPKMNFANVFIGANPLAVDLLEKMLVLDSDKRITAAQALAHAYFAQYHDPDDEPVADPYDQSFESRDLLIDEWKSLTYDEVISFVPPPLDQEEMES
Sequence of GSK3α (P49840 whole entry): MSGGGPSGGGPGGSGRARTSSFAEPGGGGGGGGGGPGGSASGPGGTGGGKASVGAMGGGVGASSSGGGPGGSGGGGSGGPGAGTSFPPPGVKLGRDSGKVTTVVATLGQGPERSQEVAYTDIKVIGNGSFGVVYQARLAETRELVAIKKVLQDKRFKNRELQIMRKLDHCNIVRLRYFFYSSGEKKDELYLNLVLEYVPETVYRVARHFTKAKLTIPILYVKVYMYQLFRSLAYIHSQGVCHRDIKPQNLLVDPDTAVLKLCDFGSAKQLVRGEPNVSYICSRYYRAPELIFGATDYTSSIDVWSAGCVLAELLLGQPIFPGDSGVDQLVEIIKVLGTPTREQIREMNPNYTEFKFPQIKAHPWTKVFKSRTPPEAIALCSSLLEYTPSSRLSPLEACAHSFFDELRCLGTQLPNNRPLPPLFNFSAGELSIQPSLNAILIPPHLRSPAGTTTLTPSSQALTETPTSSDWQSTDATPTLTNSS
Sequence of c-Src (P12931 whole entry, looked up): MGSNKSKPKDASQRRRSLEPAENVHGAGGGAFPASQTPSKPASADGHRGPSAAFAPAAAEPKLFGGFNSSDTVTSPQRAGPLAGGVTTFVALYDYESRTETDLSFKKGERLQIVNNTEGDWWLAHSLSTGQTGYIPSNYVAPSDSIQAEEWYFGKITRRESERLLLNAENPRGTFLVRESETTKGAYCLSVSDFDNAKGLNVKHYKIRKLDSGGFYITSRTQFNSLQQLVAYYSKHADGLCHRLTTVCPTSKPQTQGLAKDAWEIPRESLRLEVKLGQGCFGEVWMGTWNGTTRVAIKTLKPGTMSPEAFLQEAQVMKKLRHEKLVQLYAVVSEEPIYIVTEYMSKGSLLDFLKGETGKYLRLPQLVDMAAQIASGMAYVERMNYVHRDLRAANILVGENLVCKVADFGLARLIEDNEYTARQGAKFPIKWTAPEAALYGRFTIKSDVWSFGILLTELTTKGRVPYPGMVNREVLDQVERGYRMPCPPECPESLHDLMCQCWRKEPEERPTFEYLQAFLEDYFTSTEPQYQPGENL

For the compound `COCCOCCOCCOCCOCCOCCOCCOc1cc(Nc2nccc(Oc3ccc(NC(=O)Nc4cc(C(C)(C)C)nn4C)c4ccccc34)n2)cc(OC)c1` [Example 6, 1-(4-((2-((3-(2,5,8,11,14,17,20-Heptaoxadocosan-22-yloxy)-5-methoxyphenyl)amino)-pyrimidin-4-yl)oxy)naphthalen-1-yl)-3-(3-(tert-butyl)-1-methyl-1H-pyrazol-5-yl)urea], the IC50 against GSK3α came out at 1230 nM; with PBMCs [1], 10.7 nM.
With `COc1cc(Nc2nccc(Oc3ccc(NC(=O)Nc4cc(C(C)(C)C)nn4C)c4ccccc34)n2)cc(S(=O)(=O)C2CC2)c1` [Example 3, 1-(3-(tert-Butyl)-1-methyl-1H-pyrazol-5-yl)-3-(4-((2-((3-(cyclopropylsulfonyl)-5-methoxy-phenyl)amino)pyrimidin-4-yl)oxy)naphthalen-1-yl)urea], the half-maximal inhibitory concentration (IC50) against p38 MAPKα worked out at 36 nM; against GSK3α it was 1940 nM; in the assay with PBMCs [1], 7.2 nM; with PBMCs [2] it was 22 nM. The “% β-catenin induction” value was −1% with d-U937 cells (setting [3]), 25% in the assay on d-U937 cells (setting [4]) and 27% in the assay on d-U937 cells (setting [5]).
In the case of `C#Cc1cc(Nc2nccc(Oc3ccc(NC(=O)Nc4cc(C(C)(C)C)nn4CCC)c4ccccc34)n2)cc(C(=O)NCCOCCOCCOC)c1` [13(b), 3-((4-((4-(3-(3-(tert-Butyl)-1-propyl-1H-pyrazol-5-yl)ureido)naphthalen-1-yl)oxy)-pyrimidin-2-yl)amino)-5-ethynyl-N-(2-(2-(2-methoxyethoxy)ethoxy)ethyl)benzamide], the results for the IC50 at GSK3α and in the assay on PBMCs [1] were 13100 nM and 9.3 nM, respectively.
In the case of `C#Cc1cc(Nc2nccc(Oc3ccc(NC(=O)Nc4cc(C(C)(C)C)nn4CC)c4ccccc34)n2)cc(C(=O)NCCOCCOCCOC)c1` [Example 8, 3-((4-((4-(3-(3-(tert-Butyl)-1-ethyl-1H-pyrazol-5-yl)ureido)naphthalen-1-yl)oxy)pyrimidin-2-yl)amino)-5-ethynyl-N-(2-(2-(2-methoxyethoxy)ethoxy)ethyl)benzamide], the IC50 against p38 MAPKα is 20 nM; against c-Src, 5 nM; on Syk it was above 1000 nM; at GSK3α, 3070 nM; in the assay on PBMCs [1] it was 4.8 nM; in the assay with PBMCs [2] it was 13.2 nM. Further, the “% β-catenin induction” value with d-U937 cells (setting [3]) is recorded as 2.5%; in the assay with d-U937 cells (setting [4]), 4%; with d-U937 cells (setting [5]), 3.5%.
Turning to `C#Cc1cc(Nc2nccc(Oc3ccc(NC(=O)Nc4cc(C(C)(C)C)nn4C(C)(C)C)c4ccccc34)n2)cc(C(=O)NCCOCCOCCOC)c1` [Example 12, 3-((4-((4-(3-(1,3-Di-tert-butyl-1H-pyrazol-5-yl)ureido)naphthalen-1-yl)oxy)pyrimidin-2-yl)amino)-5-ethynyl-N-(2-(2-(2-methoxyethoxy)ethoxy)ethyl)benzamide], the IC50 on GSK3α was 13100 nM; with PBMCs [1], 546 nM.
Regarding `C#Cc1cc(Nc2nccc(Oc3ccc(NC(=O)Nc4cc(C(C)(C)C)nn4C(C)C)c4ccccc34)n2)cc(C(=O)NCCOCCOCCOC)c1` [13(a), 3-((4-((4-(3-(3-(tert-Butyl)-1-isopropyl-1H-pyrazol-5-yl)ureido)naphthalen-1-yl)oxy)pyrimidin-2-yl)amino)-5-ethynyl-N-(2-(2-(2-methoxyethoxy)ethoxy)ethyl)-benzamide], the IC50 came to 8610 nM against GSK3α and 5.4 nM in the assay on PBMCs [1].
At p38 MAPKα, `C#Cc1cc(Nc2nccc(Oc3ccc(NC(=O)Nc4cc(C(C)(C)C)nn4-c4ccc(C)cc4)c4ccccc34)n2)cc(C(=O)NCCN2CCOCC2)c1` [Reference Compound A, 3-((4-((4-(3-(3-(tert-Butyl)-1-(p-tolyl)-1H-pyrazol-5-yl)ureido)naphthalen-1-yl)oxy)-pyrimidin-2-yl)amino)-5-ethynyl-N-(2-morpholinoethyl)benzamide, reference compound] displayed an IC50 of 54 nM.
For the compound `COCCOCCOCCOc1cc(Nc2nccc(Oc3ccc(NC(=O)Nc4cc(C(C)(C)C)nn4-c4ccc(C)cc4)c4ccccc34)n2)cc(OC)c1` [Reference Compound B, 1-(3-(tert-Butyl)-1-(p-tolyl)-1H-pyrazol-5-yl)-3-(4-((2-((3-methoxy-5-(2-(2-(2-methoxy-ethoxy)ethoxy)ethoxy)phenyl)amino)pyrimidin-4-yl)oxy)naphthalen-1-yl)urea, reference compound], the IC50 against p38 MAPKα is 139 nM.
Consider `C#Cc1cc(Nc2nccc(Oc3ccc(NC(=O)Nc4cc(C(C)(C)C)nn4C)c4ccccc34)n2)cc(C(=O)NCCOCCOC)c1` [Example 4, 3-((4-((4-(3-(3-(tert-Butyl)-1-methyl-1H-pyrazol-5-yl)ureido)naphthalen-1-yl)oxy)pyrimidin-2-yl)amino)-5-ethynyl-N-(2-(2-methoxyethoxy)ethyl)], for which the IC50 against GSK3α was determined as 1010 nM; in the assay on PBMCs [1] it was 4.7 nM.
